Measured values as given in paper PMC9083330, “An Efficient Evaluation System Accelerates α-Helical Antimicrobial Peptide Discovery and Its Application to Global Human Genome Mining” (Frontiers in Microbiology, 2022).
≈ marks a conversion by molar mass, not a printed value.

Legend:
[1] = test system: Shigella dysenteriae (CMCC(B)51105); assay: MIC, broth microdilution; assay type: cell-based; details: read-out: MIC, 9. S. dysenteriae (CMCC(B)51105)
[2] = test system: Klebsiella pneumoniae (CMCC46117); assay: MIC, broth microdilution; details: CMCC46117, read-out: MIC, 6. K. pneumoniae (CMCC46117)
[3] = test system: Staphylococcus aureus (CMCC26003); assay: MIC, broth microdilution; details: CMCC26003, read-out: MIC, 1. S. aureus (CMCC26003)
[4] = test system: mouse skin wound infected with S. aureus (CMCC26003); assay: Mouse full-thickness skin wound infection and healing; assay type: in vivo, BALB/c mice
Protocol: (§1) Briefly, adult female BALB/c mice (18–22 g) were obtained from the Laboratory Animal Center of Shenyang Pharmaceutical University and performed in compliance with the guidelines of the Institutional Animal Care and Use Committee of Shenyang Pharmaceutical University. Each mouse was operated on an 8-mm in diameter round-shape wound under surgery conditions with an intraperitoneal injection of ketamine (90 mg/kg) and xylazine (10 mg/kg). The mice were randomly divided into 10 groups, including one normal group, three model groups, three treatment groups, and three positive groups (n = 10 in each group), then the wounds were infected with 40 μl (1 × 10^8 CFU/mL) of E. coli (CMCC44103) or drug-resistant E. coli (SYPB-3820) or S. aureus (CMCC26003), respectively, except for the normal group. Forty-eight hours later, the wounds of three model groups were treated with a sterile 0.85% saline solution. […] All the wounds were treated twice 1 day and observed every 24 h for 14 days. On days 1, 3, 5, 7, and 10, 100 mg of treated skin tissue was removed and homogenized in 0.9 ml of sterile 0.85% saline solution, then the samples were diluted and plated onto Luria-Bertani (LB) medium. After incubation at 37°C for 20 h, the CFUs were counted to represent the bacterial number in the wounds.

[5] = test system: mouse skin wound infected with drug-resistant E. coli (SYPB-3820); assay: as above; assay type: in vivo, BALB/c mice
Protocol: as §1

[6] = test system: mouse skin wound infected with E. coli (CMCC44103); assay: as above; assay type: in vivo, BALB/c mice
Protocol: as §1

[7] = test system: Escherichia coli (SYPB-3820) (multiple-resistant strain); assay: MIC, broth microdilution; details: read-out: MIC, 7. E. coli (SYPB-3820) (multiple-resistant strain)
[8] = test system: Acinetobacter baumannii (ACCC11038); assay: MIC, broth microdilution; details: read-out: MIC, 8. A. baumannii (ACCC11038)
[9] = test system: Escherichia coli (CMCC44103); assay: MIC, broth microdilution; details: CMCC44103, read-out: MIC, 5. E. coli (CMCC44103)
[10] = test system: multiple-resistant Staphylococcus aureus (MRSA186); assay: MIC, broth microdilution; details: read-out: MIC, 2. multiple-resistant S. aureus (MRSA186)
[11] = test system: genomic DNA of E. coli (SYPB-3820); assay: Peptide and DNA binding assay (gel retardation); design: species or system Escherichia coli; details: 0.5–8 × MIC (1–16 μg/ml), 37°C, 30 min, approx. 400 ng DNA
Protocol: (§2) The gel retardation experiment was conducted according to the method described by [Kim et al. (2018)] for exploring the influence of AMPs on the bacterial genome. The bacterial genomic DNAs were extracted by using a Vazyme FastPure® Bacteria DNA Isolation Mini Kit (Nanjing Vazyme Biotech Co., Ltd., Nanjing, China). […] DNA treated with Penetratin (reported as cell-penetrating peptide) ([de Mello et al., 2019]) and DNA untreated with AMP were served as positive and negative control, respectively. The extent of DNA migration was measured by agarose gel electrophoresis using a gel imaging system (Beijing Sage Creation Science, Beijing, China).

[12] = test system: genomic DNA of E. coli (CMCC44103); assay: Peptide and DNA binding assay (gel retardation); design: species or system Escherichia coli; details: 0.5–8 × MIC (1–16 μg/ml), 37°C, 30 min, approx. 400 ng DNA
Protocol: as §2

[13] = test system: genomic DNA of S. aureus (CMCC26003); assay: Peptide and DNA binding assay (gel retardation); design: species or system Staphylococcus aureus; details: 0.5–8 × MIC (1–16 μg/ml), 37°C, 30 min, approx. 400 ng DNA
Protocol: as §2

Compound: C[C@H]1COc2c(N3CCN(C)CC3)c(F)cc3c(=O)c(C(=O)O)cn1c23 [Levofloxacin]
- MIC [1]: 0.06 µg/mL (≈ 0.166 µM)
- MIC [2]: 0.03 µg/mL (≈ 0.083 µM)
- MIC [3]: 0.12 µg/mL (≈ 0.332 µM)
- Skin wound bacterial burden ([4]; day 10, S. aureus (CMCC26003) infected wound, topical 100 μl at 8 × MIC twice a day, mean ± SD): (5.37 ± 2.89) × 10^3 CFU/g
- Reduction of bacterial burden ([4]; day 10 vs initial burden, S. aureus (CMCC26003)): seven
- Wound healing (observation) ([4]; day 14, S. aureus (CMCC26003) infected wound): basically completely healed
- Skin wound bacterial burden ([5]; 10 days later, E. coli (SYPB-3820) infected wound, topical 100 μl at 8 × MIC twice a day, mean ± SD): (2.29 ± 3.78) × 10^4 CFU/g
- Reduction of bacterial counts ([5]; day 10 vs initial burden, E. coli (SYPB-3820)): five
- Wound healing (observation) ([5]; day 14, E. coli (SYPB-3820) infected wound): basically completely healed
- Skin wound bacterial burden ([6]; day 10, E. coli (CMCC44103) infected wound, topical 100 μl at 8 × MIC twice a day, mean ± SD): (3.91 ± 2.87) × 10^3 CFU/g
- Decrease of bacterial load ([6]; day 10 vs initial burden, E. coli (CMCC44103)): six
- Wound healing (observation) ([6]; day 14, E. coli (CMCC44103) infected wound): basically completely healed
- MIC [7]: 8 µg/mL (≈ 22.1 µM)
- MIC [8]: 0.06 µg/mL (≈ 0.166 µM)
- MIC [9]: 0.03 µg/mL (≈ 0.083 µM)

Compound: CN[C@H](CC(C)C)C(=O)N[C@H]1C(=O)N[C@@H](CC(N)=O)C(=O)N[C@H]2C(=O)N[C@H]3C(=O)N[C@H](C(=O)N[C@H](C(=O)O)c4cc(O)cc(O)c4-c4cc3ccc4O)[C@H](O)c3ccc(c(Cl)c3)Oc3cc2cc(c3O[C@@H]2O[C@H](CO)[C@@H](O)[C@H](O)[C@H]2O[C@H]2C[C@](C)(N)[C@H](O)[C@H](C)O2)Oc2ccc(cc2Cl)[C@H]1O [Vancomycin]
- MIC [10]: 1 µg/mL (≈ 0.69 µM)

Compound: Penetratin
- Binding to genomic DNA (gel retardation) [11]: bound with the bacterial genomic DNA and blocked the migration
- Binding to genomic DNA (gel retardation) [12]: bound with the bacterial genomic DNA and blocked the migration
- Binding to genomic DNA (gel retardation) [13]: bound with the bacterial genomic DNA and blocked the migration
